Data reported in patent US20240294881A1, “CELL CULTURE SUPPLEMENT FOR PRODUCING STEM CELLS, AND METHOD FOR PRODUCING STEM CELLS” (OPTICELL, INC, priority 2021, published 2024).

Key:
Assay type in all cases: cell-based
[1] = tested on: healthy human neonatal fibroblasts; assay: Real-time PCR of undifferentiated stem cell marker genes in neonatal fibroblast spheroids (6-well flat-bottom); details: day 20 of 3D spheroid culture, coated 6-well flat-bottom; control without supplement = 1.0; ΔΔCt, β-actin
Procedure: 2 mL of an aqueous solution of the polypeptide represented by formula (1) (0.125%) (cell culture supplement) was added to a commercial polystyrene-made 6-well flat-bottom culture vessel (CellBIND, Corning) and allowed to stand at 4° C. for 24 hours.
Thereafter, the excess cell culture supplement was removed, and the remaining solution was dried in a dryer at 37° C. for 96 hours to complete coating treatment with the cell culture supplement. Healthy human neonatal fibroblasts (ATCC PCS-201-010, primary dermal fibroblasts, neonatal, referred to as “fibroblasts” below) were maintained and cultured in a serum-free medium (Promo Cell; fibroblast basal medium, basic-FGF 5 ng/mb and insulin 2.5 μg/mL). The fibroblasts floating in 2 mL of the medium were seeded in the culture vessel coated with the cell culture supplement at 2×10^6 cells/well and cultured at 37° C. under 5% CO2 conditions. For a control, fibroblasts were seeded in a culture vessel of the same type with no coating applied with the cell culture supplement (2×10^6 cells/well). Observation was performed with a microscope on day 2 and day 20 after the start of culture to capture images of spheroid formation (FIG. 5). […]
Specifically, a NucleoZOL reagent (Macherey-Nagel) was added to each type of cells, and total-RNA was extracted according to the protocol recommended by the reagent manufacturer and used as template RNA for detecting undifferentiated stem cell markers. For real-time PCR analysis, PCR probes from QuantiFast Probe RT-PCR Kits (QTAGEN; No. 204454) and TagMan Gene Expression Assay Probe (Thermo Fisher Scientific) were used. […] In the gene expression analysis, relative quantification was performed according to the ΔΔCt method (Delta Delta Ct method). The results of analysis according to the ΔΔCt method show the amount of a gene expressed by control cells under the conditions of “no cell culture supplement, flat-bottom 2D growth, day 0” as “1.0” in relative terms, and the increase rate of the expression level on day 20 of spheroid proliferation was determined by comparison (FIG. 6).

[2] = tested on: HOS-143 cells (human osteosarcoma cells); assay: Three-dimensional spheroid culture of cancer cells, microscope observation; details: 6-well flat-bottom vessel coated with 0.125% solution; DMEM + 10% FBS; day 4 to day 15
Procedure: (§1) Method 2 mL of an aqueous solution of the polypeptide represented by formula (1) (0.125%) (cell culture supplement) was added to a commercial polystyrene-made 6-well flat-bottom culture vessel (CellBIND, Corning) and allowed to stand at 4° C. for 24 hours.
(§2) The cell culture supplement solution was then removed and the coated cell culture supplement was dried in a dryer at 37° C. for 96 hours to complete the cell culture supplement coating process. For human cancer cells, common cancer cell lines, A549 cells (human lung cancer cells, ATCC CCL-185, carcinoma), ES2 cells (human ovarian cancer cells, ATCC CRL-1978, clear cell carcinoma), and HOS-143 cells (human osteosarcoma cells, ATCC CRL-8303, osteosarcoma), were used. Each type of cancer cells was seeded in the culture vessel at 2×10^5 cells/well/[…] and cultured at 37° C. under 5% CO2. The medium for use was a DMEM medium supplemented with 10% FBS and penicillin/streptomycin. For a control, cancer cells were seeded in the same type of culture vessel that was not coated with the cell culture supplement at […]. Observation was performed with a microscope on day 4 and day 15 after the start of culture to capture images of spheroid formation (FIG. 18).

[3] = tested on: A549 cells (human lung cancer cells); assay: as above; details: 6-well flat-bottom vessel coated with 0.125% solution; DMEM + 10% FBS; day 4 to day 15
Procedure: as §1, §2

[4] = tested on: ES2 cells (human ovarian cancer cells); assay: as above; details: 6-well flat-bottom vessel coated with 0.125% solution; DMEM + 10% FBS; day 4 to day 15
Procedure: as §1, §2

[5] = tested on: healthy human adult mammary gland epithelial cells; assay: Spheroid culture of healthy human adult mammary gland epithelial cells, microscope observation; details: culture vessel coated with 0.125% solution; day 2 to day 20; uncoated control grew 2D
Procedure: An aqueous solution of the polypeptide represented by formula (1) (0.125%) (cell culture supplement) was added to a commercial polystyrene-made 6-well flat-bottom culture vessel (CellBIND, Corning) and to a polystyrene-made 96-well round-bottom culture vessel (Nunclon Delta 96U Bottom, Thermo Fisher Scientific) and allowed to stand at 4° C. for 24 hours.
The cell culture supplement solution was then removed and the coated cell culture supplement was dried in a dryer at 37° C. for 96 hours to complete the cell culture supplement coating process. Healthy human adult mammary gland epithelial cells (ATCC PCS-600-010, primary mammary epithelial cells, referred to as “mammary gland epithelial cells” below) were maintained and cultured in a serum-free medium (Promo Cell; mammary epithelial cell growth medium, EGF 5 ng/ml, and insulin 2.5 μg/mL). In the culture vessels coated with the cell culture supplement, the mammary gland epithelial cells floating in 2 mL of the medium were seeded at 2×10^6 cells/well (6-well flat-bottom culture vessel) and the mammary gland epithelial cells floating in 100 μL of the medium were seeded at 2×10^4 cells/well (96-well round-bottom culture vessel). The cells of each culture vessel were cultured at 37° C. under 5% CO2 conditions. […]

In the case of “(Pro-Hyp-Gly)n [cell culture supplement]”, the “NANOG gene expression level (increase vs control)” value [1] is reported as 9.1 fold, the “OCT4 gene expression level (increase vs control)” value [1] is reported as 5.1 fold and the “SOX2 gene expression level (increase vs control)” value [1] is reported as 34.4 fold. The spheroid formation [2] was “form spheroids”, the spheroid formation [3] was “form spheroids” and the spheroid formation [4] was “form spheroids”. The spheroid formation [5] was “self-assembled to form spheroids”.
